Read-outs that look alike come from different tables or passages of the source.
Tested on: NHL patients (FL, MZL, MCL, DLBCL, transformed indolent lymphoma, CLL)
Source text: Best response status and progression-free survival (hereinafter referred to as “PFS”) from independent review assessment were used for gene expression analysis. A total number of 24 patients including 3 complete responders, 1 confirmed (hereinafter referred to as “CR”) and 2 unconfirmed (hereinafter referred to as “CRu”) and 5 partial responders (hereinafter referred to as “PR”), 11 stable diseases (hereinafter referred to as “SD”) and 5 progressive diseases (hereinafter referred to as “PD”) with follicular lymphoma (hereinafter referred to as “FL”), marginal zone lymphoma (hereinafter referred to as “MZL”), mantle cell lymphoma (“MCL”), diffuse large B-cell lymphoma (hereinafter referred to as “DLBCL”), transformed indolent lymphoma or CLL who had baseline RNA expression profiling data of sufficient quantity and quality were used for gene expression analysis as listed in Table 1 (given in the experimental section).
Bioinformatics and statistical analyses were done for all 24 NHL patients. […] For GSEA, 34 gene sets (vide Tables 2 and 3) sharing key biological function/process in apoptosis, B-cell receptor (hereinafter referred to as “BCR”) signaling, IL6/JAK/STAT3, cytokine/chemokine, MAPK, MYC, MYD88, NFAT, NFkB, NOTCH, PI3K or tumor microenvironment (refs 3 and 4) were selected and generated.
A weighted gene expression score (hereinafter referred to as “WGS”) reflecting the overall expression level for each gene set was generated from logistic regression and Cox proportional hazards models to assess the association with response status (best-response-WGS) and PFS (PFS-WGS), respectively.
Both the best-response-WGS as well as the PFS-WGS were in turn used in logistic regression or Cox regression models to assess the association of either WGS with the endpoints. Moreover, the raw best-response WGS was used to compute non-cross validated AUC estimates for responder (CR+PR) and non-responder (SD+PD) classifications.

Structure (SMILES): COc1c(OCCCN2CCOCC2)ccc2c1N=C(NC(=O)c1cnc(N)nc1)N1CCN=C21 [copanlisib]
- median PFS (CSTB, median gene expression level as cutoff, first printed group (high expression, shorter PFS)): 74 days
- number of patients with CR (of the 24 analyzable patients): 3
- number of patients with PD (of the 24 analyzable patients): 5
- number of patients with PR (of the 24 analyzable patients): 5
- number of patients with SD (of the 24 analyzable patients): 11
- objective response rate (patients with high BCR pathway WGS compared to low): increased
- objective response rate (patients with high PI3K pathway WGS compared to low): increased

Source: patent US20190382839A1, “[…]” (Bayer Pharma Aktiengesellschaft, priority 2016, published 2019)
